Laboratory results as given in US11166958B2, “4-pyrazin-2-ylmethyl-morpholine derivatives and the use thereof as medicament” (Boehringer Ingelheim International GmbH, priority 2018, dated 2021).

Columns and labels:
NMDA NR1/NR2B receptor = NMDA NR1/NR2B receptor (Homo sapiens (Human), UniProt Q13224); assay: In vitro NMDA NR1/NR2B cell assay (FLIPR, intracellular calcium induced by glycine/glutamate); type: cell-based; details: HEK293 NR1/NR2B, 20 μM glycine / 1 μM glutamate, read-out: In vitro NR2B affinity, IC50
NMDA NR1/NR2B receptor, sequence (Q13224 27-1484, other chains not shown): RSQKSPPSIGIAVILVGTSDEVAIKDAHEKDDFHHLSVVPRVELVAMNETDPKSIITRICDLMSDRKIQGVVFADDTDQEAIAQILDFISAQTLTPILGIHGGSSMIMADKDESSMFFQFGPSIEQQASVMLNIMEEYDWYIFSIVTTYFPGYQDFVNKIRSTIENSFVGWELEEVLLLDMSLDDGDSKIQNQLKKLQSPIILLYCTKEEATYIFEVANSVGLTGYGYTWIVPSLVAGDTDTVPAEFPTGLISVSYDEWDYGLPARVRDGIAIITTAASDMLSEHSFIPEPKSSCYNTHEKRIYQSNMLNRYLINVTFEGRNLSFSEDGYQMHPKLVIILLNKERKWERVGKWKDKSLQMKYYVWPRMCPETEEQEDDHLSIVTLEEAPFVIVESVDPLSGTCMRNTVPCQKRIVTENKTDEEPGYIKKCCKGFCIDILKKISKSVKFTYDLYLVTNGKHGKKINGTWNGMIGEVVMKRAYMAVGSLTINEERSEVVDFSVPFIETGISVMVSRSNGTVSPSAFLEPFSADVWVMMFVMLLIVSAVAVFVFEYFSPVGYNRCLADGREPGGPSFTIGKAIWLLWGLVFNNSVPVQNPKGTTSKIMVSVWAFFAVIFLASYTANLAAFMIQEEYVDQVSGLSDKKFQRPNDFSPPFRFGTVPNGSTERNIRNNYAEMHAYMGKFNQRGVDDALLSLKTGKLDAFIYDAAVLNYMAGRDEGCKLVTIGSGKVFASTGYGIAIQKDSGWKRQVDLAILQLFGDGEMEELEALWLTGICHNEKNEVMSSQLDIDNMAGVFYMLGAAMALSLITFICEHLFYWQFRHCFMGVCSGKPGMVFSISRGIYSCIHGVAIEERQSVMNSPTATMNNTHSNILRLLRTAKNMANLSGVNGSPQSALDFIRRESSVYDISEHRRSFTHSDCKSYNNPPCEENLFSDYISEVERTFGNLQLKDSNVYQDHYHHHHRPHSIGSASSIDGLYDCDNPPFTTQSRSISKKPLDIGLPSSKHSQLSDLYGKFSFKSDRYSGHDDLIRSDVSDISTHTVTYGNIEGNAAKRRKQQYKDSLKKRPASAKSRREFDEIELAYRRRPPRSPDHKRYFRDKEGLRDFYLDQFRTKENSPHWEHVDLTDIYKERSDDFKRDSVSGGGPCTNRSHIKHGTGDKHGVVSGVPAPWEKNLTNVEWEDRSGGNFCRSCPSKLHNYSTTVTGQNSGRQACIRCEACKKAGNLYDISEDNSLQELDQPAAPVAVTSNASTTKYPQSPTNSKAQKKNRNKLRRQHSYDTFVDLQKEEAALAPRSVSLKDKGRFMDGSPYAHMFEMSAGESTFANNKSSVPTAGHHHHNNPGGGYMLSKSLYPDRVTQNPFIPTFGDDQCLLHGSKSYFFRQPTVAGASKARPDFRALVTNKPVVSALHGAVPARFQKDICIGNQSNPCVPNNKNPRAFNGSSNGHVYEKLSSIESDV
Description: A human HEK293 cell line with tetracyclin-inducible expression of NMDA NR1/NR2B receptor was used as a test system for compound efficacy and potency. The cell line was purchased from ChanTest, Catalog #CT6121. Compound activity was determined by measuring the effect of compounds on intracellular calcium concentration induced by glycine/glutamate agonism in a FLIPRtetra system (Molecular Devices).
The cells were obtained as frozen cells in cryo-vials and stored until use at −150° C. Cells were grown in culture medium (DMEM/F12, 10% FBS, 5 μg/mL Blasticidin, 150 μg/mL Zeozin, 500 μg/mL Geneticin). […] For sub-culturing the cells were detached from flasks by Versene. For the assay, cells were detached, washed twice with induction medium (DMEM/F12 without glutamine, 10% FBS, 2 μg/mL Tetracycline, 2 mM Ketamine) and seeded to 384 well pure coat amine plates (Becton Dickinson, 50000 cells per well in 50 μl) 48 h prior to assay in induction medium.
The test compounds were dissolved in 100% DMSO at a concentration of 10 mM and in a first step diluted in DMSO to a concentration of 5 mM, followed by serial dilution steps in 100% DMSO. Dilution factor and number of dilution steps may vary according to needs. Typically 8 different concentrations by 1:5 dilutions were prepared in duplicate, further intermediate dilutions (1:37.5) of the substances were carried out with aqueous assay buffer (137 mM NaCl, 4 mM KCl, 1.8 mM CaCl2), 10 mM HEPES, 10 mM Glucose, pH 7.4) resulting in a compound concentration 3 times above the final test concentration and DMSO at 2.7% resulting in 0.9% final DMSO concentration in the assay.
At the assay day cells were washed 3× with assay buffer (as described above), 10 μL buffer remained in the wells after washing. 10 μL Ca kit loading buffer (AAT Bioquest; prepared from the kit containing the following components: Component A: Fluo-8 NW dissolved in 200 μL DMSO and 20 μl of this solution are mixed with 10 ml buffer prepared out of component B and C, Component B: 10× Pluronic® F127 Plus diluted 1:10 in component C, Component C: HHBS (Hanks with 20 mM Hepes) was added to the cells and the plates were incubated with lid for 60 minutes at room temperature. 20 μl assay buffer containing 60 μM glycine (20 μM final) and 3 μM glutamate (1 μM final) was added to column 1-23, column 24 got assay buffer without glycine/glutamate to serve as negative unstimulated control. Fluorescence (indicating the calcium influx as a result of the NR1/NR2B ion channel activation) was read on the FLIPRtetra device for 60 seconds to monitor the glutamate induced effects. After 2 minutes 20 μL of compound dilution prepared as described above or controls (row 1-22) in assay buffer were carefully added to the wells. […] The average of 2 measurements at 5 minutes and 5 min 10 seconds after compound addition is calculated and further used for IC50 calculations. Each assay microtiter compound dilution plate contained wells (in column 23 or 24) with DMSO controls instead of compound as controls for glycine/glutamate induced fluorescence (high controls) and wells with 1 μM of a reference NR2B NAM as low controls (Compound 22; reference: Layton, Mark E et al, ACS Chemical Neuroscience 2011, 2(7), 352-362).
The output file of the reader contains the well number and measured average fluorescence units. For data evaluation and calculation, the measurement of the low control was set as 0% control and the measurement of the high control was set as 100% control. The IC50 values were calculated using the standard 4 parameter logistic regression formula. Calculation: [y=(a−d)/(1+(x/c)^b)+d], a=low value, d=high value; x=conc M; c=IC50 M; b=slope.

Nav1.6 channel = Nav1.6 channel (Homo sapiens (Human), UniProt Q9UQD0); assay: Nav1.6 inhibition, IonWorks Quattro electrophysiology; type: cell-based; details: for inhibition at 1 µM / inhibition at 5 µM: normalized to vehicle (0%) and maximal inhibition control (100%)
Nav1.6 channel, sequence (Q9UQD0 whole entry): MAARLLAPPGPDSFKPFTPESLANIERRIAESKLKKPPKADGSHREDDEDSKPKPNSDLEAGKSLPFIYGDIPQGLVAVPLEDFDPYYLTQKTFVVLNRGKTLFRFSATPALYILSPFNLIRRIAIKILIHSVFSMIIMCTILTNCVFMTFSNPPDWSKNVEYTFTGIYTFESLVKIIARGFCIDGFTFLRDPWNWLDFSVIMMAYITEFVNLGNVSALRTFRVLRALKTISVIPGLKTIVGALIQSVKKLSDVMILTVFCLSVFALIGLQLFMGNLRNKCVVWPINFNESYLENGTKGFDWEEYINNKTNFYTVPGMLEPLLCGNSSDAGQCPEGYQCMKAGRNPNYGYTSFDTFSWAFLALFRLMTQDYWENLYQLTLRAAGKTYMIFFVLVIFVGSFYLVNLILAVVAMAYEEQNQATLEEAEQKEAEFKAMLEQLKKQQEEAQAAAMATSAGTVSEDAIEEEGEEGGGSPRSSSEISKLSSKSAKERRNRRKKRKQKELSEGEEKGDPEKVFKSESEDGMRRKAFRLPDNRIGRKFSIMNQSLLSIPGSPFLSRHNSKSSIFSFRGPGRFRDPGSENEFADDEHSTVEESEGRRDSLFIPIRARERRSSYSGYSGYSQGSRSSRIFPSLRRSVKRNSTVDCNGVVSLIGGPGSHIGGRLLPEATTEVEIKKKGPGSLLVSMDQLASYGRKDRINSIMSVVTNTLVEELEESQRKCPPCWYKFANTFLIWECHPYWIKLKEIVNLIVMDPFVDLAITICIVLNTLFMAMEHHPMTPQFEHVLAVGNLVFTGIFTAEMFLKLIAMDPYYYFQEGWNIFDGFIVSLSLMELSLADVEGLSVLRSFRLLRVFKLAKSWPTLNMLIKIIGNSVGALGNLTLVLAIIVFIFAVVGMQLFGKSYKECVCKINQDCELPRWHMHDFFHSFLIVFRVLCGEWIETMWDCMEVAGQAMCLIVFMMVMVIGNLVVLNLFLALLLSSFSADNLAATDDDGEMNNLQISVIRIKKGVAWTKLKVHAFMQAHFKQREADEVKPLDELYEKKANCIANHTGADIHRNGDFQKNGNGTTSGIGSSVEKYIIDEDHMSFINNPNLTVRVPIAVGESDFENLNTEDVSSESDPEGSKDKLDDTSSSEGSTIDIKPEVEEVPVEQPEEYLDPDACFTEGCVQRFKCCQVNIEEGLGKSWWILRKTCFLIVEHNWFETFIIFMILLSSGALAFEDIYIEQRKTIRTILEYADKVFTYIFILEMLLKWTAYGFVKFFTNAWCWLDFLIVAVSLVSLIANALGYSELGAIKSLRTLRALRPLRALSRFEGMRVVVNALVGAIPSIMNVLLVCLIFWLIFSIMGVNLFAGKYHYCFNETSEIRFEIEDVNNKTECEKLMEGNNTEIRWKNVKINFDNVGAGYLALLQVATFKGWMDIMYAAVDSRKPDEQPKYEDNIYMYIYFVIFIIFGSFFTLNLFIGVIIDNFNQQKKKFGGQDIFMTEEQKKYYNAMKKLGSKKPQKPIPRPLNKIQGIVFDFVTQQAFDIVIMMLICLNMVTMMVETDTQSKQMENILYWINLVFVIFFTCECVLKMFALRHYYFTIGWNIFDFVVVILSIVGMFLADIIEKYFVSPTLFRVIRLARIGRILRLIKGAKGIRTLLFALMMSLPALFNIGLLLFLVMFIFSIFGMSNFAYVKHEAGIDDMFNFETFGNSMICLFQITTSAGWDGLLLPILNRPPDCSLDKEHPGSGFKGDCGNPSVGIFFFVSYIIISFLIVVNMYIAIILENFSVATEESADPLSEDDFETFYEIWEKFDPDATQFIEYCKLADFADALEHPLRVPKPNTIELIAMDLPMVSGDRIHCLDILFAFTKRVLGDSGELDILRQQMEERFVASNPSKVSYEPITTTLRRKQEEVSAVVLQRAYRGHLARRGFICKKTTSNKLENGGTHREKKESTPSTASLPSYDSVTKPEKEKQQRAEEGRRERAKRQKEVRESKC
Description: IonWorks Quattro electrophysiological platform
The compounds were prepared in DMSO at 300× the final assay concentrations of 1 and 5 μM.
The 300× DMSO stock solutions were transferred into assay plates where 2 μl per well of each 300× stock solution were placed. All assay plates were stored at −80° C. until the day of assay.
On the day of the assay, the appropriate assay plate was thawed at room temperature, centrifuged, and 198 μl of external recording solution was added and mixed thoroughly. This provided a 1:100 dilution. A further 1:3 dilution occurred upon addition to the cells in the IonWorks Quattro electrophysiological platform, giving a 1:300 dilution in total. On each assay plate, at least 8 wells were reserved for vehicle control (0.3% DMSO) and at least 8 wells for each positive control specific to the cell line tested. The positive controls were tested at a maximal blocking and an approximate IC50 concentration. As positive control Lidocaine at concentrations of 30 and 1000 μM was used.
The solutions for recording Nav1.6 currents were as follows:
Amphotericin B was used to obtain electrical access to the cell interior at a final concentration of 200 μg/ml in internal recording solution.
State-dependent inhibition: Sodium channels when held at depolarized potential or long test pulse, the channels open and inactivate and then stay inactivated until the membrane potential is stepped back to hyperpolarized potentials, when the inactivated channels recover from inactivation into closed state.
Cells were held at −120 mV. In order to completely inactivate the sodium channels (pulse 1), the cells were pulsed to +0 mV for 2500 ms and stepped back to −120 mV for 10 ms (to completely recover from inactivation, however channels that had drugs bound to them will not recover from inactivation) before stepping to +0 mV for 20 ms (pulse 2).
Assay Control Results Both the positive and vehicle control data associated with each cell line assayed are shown below as an example. The mean is shown for each positive and negative control as solid symbol with the total number of individual well replicates given next to the solid symbol. In addition, the individual data of each well are shown on the graph as open symbols so that the variation about the mean value can be readily assessed.
Shown below are the assay controls for the Nav1.6 IonWorks Quattro assay.
Tables 3 and 4 show the normalized percentage inhibition of Nav1.6 channel. […] (see also the figure Assay Control Results above).

SMILES	IC50 (NMDA NR1/NR2B receptor) [nM]	inhibition at 1 µM (Nav1.6 channel) [%]	inhibition at 5 µM (Nav1.6 channel) [%]	inhibition of the Nav 1.6 channel (Nav1.6 channel; at 5 μM)
CNC(=O)[C@@H]1CN(Cc2cnc(Oc3ccc(F)cc3)cn2)CCO1 [Example 1]	968	-9	0.5	
CNC(=O)[C@@H]1CN(Cc2cnc(Oc3ccc(C)cc3F)cn2)CCO1 [Example 2]	123	-4.4	-4	
CNC(=O)[C@@H]1CN(Cc2cnc(Oc3ccc(C)cc3)cn2)CCO1 [Example 3]	690	4.6	6.8	
CNC(=O)[C@@H]1CN(Cc2cnc(Oc3ccc(C)cc3C)cn2)CCO1 [Example 4]	1200	3.4	5	
CNC(=O)[C@@H]1CN(Cc2cnc(Oc3ccc(Cl)cc3F)cn2)CCO1 [Example 5]	110	-3.9	3.7	
CNC(=O)[C@@H]1CN(Cc2cnc(Oc3ccc(F)cc3F)cn2)CCO1 [Example 6]	87	5.6	0.2	
CNC(=O)[C@@H]1CN(Cc2cnc(Oc3ccc(Cl)cc3)cn2)CCO1 [Example 7]	1000	-9	-15	not showing any significant inhibition
CNC(=O)[C@@H]1CN(Cc2cnc(Oc3ccc(F)cc3C)cn2)CCO1 [Example 8]	856	3	1.1	
CNC(=O)[C@@H]1CN(Cc2cnc(Oc3ccccc3F)cn2)CCO1 [Example 9]	210	0	4.6	
CNC(=O)[C@@H]1CN(Cc2cnc(Oc3ccccc3Cl)cn2)CCO1 [Example 18]	222	-5	-10	
CCNC(=O)[C@@H]1CN(Cc2cnc(Oc3ccc(F)cc3F)cn2)CCO1 [Example 30]	595	-13.4	-9.4	
CCNC(=O)[C@@H]1CN(Cc2cnc(Oc3ccc(C)cc3F)cn2)CCO1 [Example 31]	524	-5.8	-7	
CCNC(=O)[C@@H]1CN(Cc2cnc(Oc3ccccc3Cl)cn2)CCO1 [Example 33]	807	-10.5	-6.6	
